{
  "source": "patent US6608176B2",
  "about": "“Taste receptor for umami (monosodium glutamate) taste” (University of Miami, priority 2000, dated 2003)",
  "key": {"[1]": {"system": "CHO cells transfected with non-recombinant pcDNA3.1 vector", "assay": "cAMP level in control CHO cells transfected with non-recombinant vector", "assay_type": "cell-based, Chinese hamster", "conditions": "for change of cAMP concentration in control cells: non-recombinant vector; for cAMP level relative to controls: n=9", "procedure": "(§1) CHO cells were transfected with brain-mGluR4 and taste-mGluR4 constructs and with non-recombinant pcDNA3.1 vector, all in parallel, using a cationic lipid, DMRIE-C (Gibco-BRL). Cells with stably integrated plasmid were selected and maintained in 300 μg per ml G418 starting 24 h after transfection. The medium consisted of Dulbecco's Modified Eagle Medium (D-MEM) supplemented with 10% fetal bovine serum, 2 mM glutamine, 1.7 mM proline and 100 units per ml penicillin-streptomycin^35. Clones were lifted within two weeks and screened for expression by western blot analysis. A single clone for each form was propagated for functional assays. Stably transfected but non-clonal lines of cells from independent transfections with both forms of mGluR4 and non-recombinant vector were also maintained and used in functional assays.\n(§2) CHO cells, stably transfected with brain-mGluR4, taste-mGluR4 or non-recombinant pcDNA3.1, were maintained as sub-confluent cultures and refed every two days to minimize chronic stimulation of expressed receptors by glutamate released from dead cells. Cells were plated 20 h before assay in a 96-well microtiter plate at 2×10^4 cells per 200 μl well. Fresh medium was replaced for one hour immediately before assaying receptor function as described^35. Briefly, cells were incubated in Dulbecco's phosphate buffered saline containing 1 mM IBMX for 20 min followed by stimulation for 10 min in 10 μM forskolin and 1 mM IBMX, with or without agonists. Stimulation buffer was rapidly removed, and cells were lysed in 200 μl 0.25% dodecyltrimethyl-ammonium bromide in 50 mM acetate buffer (Amersham, Piscataway, N.J.). Released cAMP in 20% of each lysate was assayed directly using an Amersham EIA-based kit and plotted as mean±s.e. of 3-6 experiments, each performed with triplicate wells of cells."}, "brain-mGluR4 [2]": {"biological_target": "T1, brain-mGluR4 (Rattus norvegicus, UniProt P31423)", "T1 construct": "Full-length cDNAs for brain-mGluR4 and taste-mGluR4 were reconstructed; expressed in transfected cells", "T1 sequence (P31423 33-912)": "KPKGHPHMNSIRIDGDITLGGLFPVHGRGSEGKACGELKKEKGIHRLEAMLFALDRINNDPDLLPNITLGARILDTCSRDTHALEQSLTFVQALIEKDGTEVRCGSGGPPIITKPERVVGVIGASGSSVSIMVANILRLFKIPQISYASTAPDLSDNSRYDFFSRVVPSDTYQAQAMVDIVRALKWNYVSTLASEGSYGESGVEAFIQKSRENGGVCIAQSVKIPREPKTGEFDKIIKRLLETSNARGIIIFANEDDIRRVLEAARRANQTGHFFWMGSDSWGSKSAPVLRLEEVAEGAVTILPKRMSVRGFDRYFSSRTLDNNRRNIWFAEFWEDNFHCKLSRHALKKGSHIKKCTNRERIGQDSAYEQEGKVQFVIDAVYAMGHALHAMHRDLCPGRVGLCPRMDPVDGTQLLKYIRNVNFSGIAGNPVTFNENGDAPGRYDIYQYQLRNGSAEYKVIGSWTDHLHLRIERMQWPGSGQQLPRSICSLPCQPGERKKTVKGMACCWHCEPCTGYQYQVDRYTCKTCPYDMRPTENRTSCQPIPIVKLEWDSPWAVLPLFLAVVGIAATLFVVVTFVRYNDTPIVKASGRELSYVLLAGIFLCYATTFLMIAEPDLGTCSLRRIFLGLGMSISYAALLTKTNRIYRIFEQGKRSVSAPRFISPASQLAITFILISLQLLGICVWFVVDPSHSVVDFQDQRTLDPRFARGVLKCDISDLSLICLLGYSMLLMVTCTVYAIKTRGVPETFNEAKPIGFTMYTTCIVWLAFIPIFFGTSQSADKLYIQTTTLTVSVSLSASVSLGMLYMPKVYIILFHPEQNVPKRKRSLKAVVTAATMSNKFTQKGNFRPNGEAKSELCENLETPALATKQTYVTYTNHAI", "assay": "Suppression of forskolin-stimulated cAMP in CHO cells stably expressing brain-mGluR4", "assay_type": "cell-based", "procedure": "as §1, §2\n(§3) In transfected CHO cells, activation of group III mGluRs leads to a suppression of forskolin-stimulated cAMP synthesis^35. […] Thus, two separate lines of CHO cells expressing taste-mGluR4 were examined."}, "taste-mGluR4": {"biological_target": "T2, taste-mGluR4 (Rattus norvegicus, UniProt P31423)", "T2 construct": "expressed in transfected cells", "T2 sequence (P31423 309-912)": "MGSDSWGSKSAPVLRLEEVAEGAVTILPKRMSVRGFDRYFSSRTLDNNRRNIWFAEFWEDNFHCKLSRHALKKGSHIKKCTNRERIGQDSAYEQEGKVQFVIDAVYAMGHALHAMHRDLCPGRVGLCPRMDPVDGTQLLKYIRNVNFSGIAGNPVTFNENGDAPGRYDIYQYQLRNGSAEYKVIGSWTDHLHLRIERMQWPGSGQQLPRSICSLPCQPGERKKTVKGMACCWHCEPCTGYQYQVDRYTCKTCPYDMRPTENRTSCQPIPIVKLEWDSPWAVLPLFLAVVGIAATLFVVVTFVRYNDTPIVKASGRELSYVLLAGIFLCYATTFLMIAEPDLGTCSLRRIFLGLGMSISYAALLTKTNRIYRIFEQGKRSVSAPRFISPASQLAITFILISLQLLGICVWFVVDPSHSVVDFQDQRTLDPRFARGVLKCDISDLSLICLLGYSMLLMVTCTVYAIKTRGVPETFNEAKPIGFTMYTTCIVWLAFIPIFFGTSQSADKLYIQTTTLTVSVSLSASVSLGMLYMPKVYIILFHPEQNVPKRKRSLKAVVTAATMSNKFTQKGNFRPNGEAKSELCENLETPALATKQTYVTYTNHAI", "assay": "Suppression of forskolin-stimulated cAMP in CHO cells stably expressing taste-mGluR4", "assay_type": "cell-based", "procedure": "as §1, §2, §3"}, "brain-mGluR4 [3]": {"biological_target": "T1, brain-mGluR4", "conditions": "cited from earlier work"}, "MSG taste detection": {"system": "MSG taste detection", "conditions": "rats, behavioral assays; cited from earlier work"}, "[4]": {"system": "glossopharyngeal nerve / sensory afferents", "conditions": "cited from earlier work"}, "chorda tympani nerve": {"system": "chorda tympani nerve", "conditions": "chorda tympani nerve recordings; cited from earlier work"}},
  "note": "Like-named read-outs stand apart in the source and are kept apart here.",
  "data": [
    {"molecule": "N[C@H](CCC(=O)O)C(=O)O", "note": "[D-glutamate]", "values": [
      {"measurement": "change of cAMP concentration in control cells", "setting": "[1]", "result": "did not alter cAMP concentrations"},
      {"measurement": "cAMP level relative to controls", "setting": "brain-mGluR4 [2]; 1 MM D-glutamate, brain-mGluR4 cells", "result": "126±17", "unit": "%"},
      {"measurement": "cAMP level relative to controls", "setting": "taste-mGluR4; 1 MM D-glutamate, taste-mGluR4 cells", "result": "99±3", "unit": "%"}
    ]},
    {"molecule": "NC(CCP(=O)(O)O)C(=O)O", "note": "[L-AP4]", "values": [
      {"measurement": "change of cAMP concentration in control cells", "setting": "[1]", "result": "did not change"},
      {"measurement": "concentration above which the cAMP response saturates", "setting": "brain-mGluR4 [2]; brain-mGluR4 CHO cells, FIG. 4", "result": "above 10 μM"},
      {"measurement": "EC50", "setting": "brain-mGluR4 [3]; brain mGluR4, literature ref 35, read-out: published EC50", "result": "0.5 to 1", "unit": "µM"},
      {"measurement": "concentration near the MSG taste detection threshold", "setting": "MSG taste detection", "result": "~100", "unit": "µM"},
      {"measurement": "cAMP response", "setting": "taste-mGluR4; 10 μM L-AP4", "result": "no response"},
      {"measurement": "cAMP response", "setting": "taste-mGluR4; 100 μM and 1 mM L-AP4", "result": "progressively larger responses"}
    ]},
    {"molecule": "N[C@@H](CCC(=O)O)C(=O)[O-].[Na+]", "note": "[L-MSG, monosodium L-glutamate]", "values": [
      {"measurement": "detection threshold in recordings from sensory afferents", "setting": "[4]; adult rodents", "result": "1 to 3", "unit": "mM"},
      {"measurement": "detection threshold in recordings from sensory afferents", "setting": "[4]; juvenile rodents", "result": "0.1 to 0.3", "unit": "mM"}
    ]},
    {"molecule": "N[C@@H](CCC(=O)O)C(=O)O", "note": "[L-glutamate]", "values": [
      {"measurement": "taste nerve threshold", "setting": "[4]; adult mice and rats", "result": "2 to 10", "unit": "mM"},
      {"measurement": "threshold for glutamate taste responses in the glossopharyngeal nerve", "setting": "[4]; juvenile mice", "result": 100, "unit": "µM"},
      {"measurement": "cAMP level relative to controls", "setting": "[1]; 1 mM", "result": "127±16", "unit": "%"},
      {"measurement": "cAMP level relative to controls", "setting": "[1]; 10 mM", "result": "132±19", "unit": "%"},
      {"measurement": "EC50", "setting": "brain-mGluR4 [2]; CHO cells stably expressing brain-mGluR4, 10 μM forskolin, 1 mM IBMX", "result": 2, "unit": "µM"},
      {"measurement": "EC50", "setting": "brain-mGluR4 [3]; mGluR4a, literature ref 35, read-out: EC50 on mGluR4a, earlier reports", "result": 5, "unit": "µM"},
      {"measurement": "threshold concentration for activating taste-mGluR4", "setting": "taste-mGluR4; CHO cells expressing taste-mGluR4", "result": 30, "unit": "µM"},
      {"measurement": "EC50", "setting": "taste-mGluR4; CHO cells expressing taste-mGluR4, 10 μM forskolin, 1 mM IBMX, read-out: EC50 for L-glutamate for taste-mGluR4", "result": 280, "unit": "µM"},
      {"measurement": "concentration needed for taste mGluR4 relative to brain-derived neurotransmitter mGluR4", "setting": "taste-mGluR4; CHO cells, taste vs brain mGluR4", "result": "about 100 fold"},
      {"measurement": "cAMP response", "setting": "taste-mGluR4; at concentrations of 30 μM or below", "result": "no response"},
      {"measurement": "EC50", "setting": "taste-mGluR4; line with expression 2-fold lower than parallel brain-mGluR4 line, read-out: EC50, taste-mGluR4 CHO line", "result": 250, "unit": "µM"},
      {"measurement": "EC50", "setting": "taste-mGluR4; line with expression 100-fold lower than parallel brain-mGluR4 line, read-out: EC50, taste-mGluR4 CHO line", "result": 300, "unit": "µM"}
    ]},
    {"molecule": "C[C@](N)(CCP(=O)(O)O)C(=O)O", "note": "[MAP4]", "values": [
      {"measurement": "block of taste nerve responses to glutamate and L-AP4", "setting": "chorda tympani nerve", "result": "fails to block"}
    ]}
  ]
}
